In PubChem BioAssay (NCI):
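Here, GI50 denotes the concentration required for 50% inhibition of growth. TGI marks complete inhibition of growth.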

Legend:
Test in all cases: NCI anticancer screen, dose series, 384-well format
A498 renal = system: A498 renal
MOLT-4 leukemia = system: MOLT-4 leukemia
SF-268 CNS = system: SF-268 CNS
SN12C renal = system: SN12C renal
PC-3 prostate = system: PC-3 prostate
HCC-2998 colon = system: HCC-2998 colon
LOX IMVI melanoma = system: LOX IMVI melanoma
OVCAR-5 ovarian = system: OVCAR-5 ovarian
TK-10 renal = system: TK-10 renal
HT29 colon = system: HT29 colon
EKVX NSCLC = system: EKVX NSCLC
UO-31 renal = system: UO-31 renal
OVCAR-8 ovarian = system: OVCAR-8 ovarian
IGROV1 ovarian = system: IGROV1 ovarian
HOP-92 NSCLC = system: HOP-92 NSCLC
NCI-H226 lung = system: NCI-H226 lung
SF-295 CNS = system: SF-295 CNS
SNB-19 CNS = system: SNB-19 CNS
MDA-MB-231 breast = system: MDA-MB-231 breast
UACC-257 melanoma = system: UACC-257 melanoma
SW-620 colon = system: SW-620 colon
BT-549 breast = system: BT-549 breast
HOP-62 NSCLC = system: HOP-62 NSCLC
MALME-3M melanoma = system: MALME-3M melanoma
UACC-62 melanoma = system: UACC-62 melanoma
U251 glioblastoma = system: U251 glioblastoma
NCI-H460 NSCLC = system: NCI-H460 NSCLC
DU-145 prostate = system: DU-145 prostate
HS 578T breast = system: HS 578T breast
COLO 205 colon = system: COLO 205 colon
HL-60(TB) leukemia = system: HL-60(TB) leukemia
RPMI-8226 leukemia = system: RPMI-8226 leukemia
ACHN renal = system: ACHN renal
T-47D breast = system: T-47D breast
SNB-75 CNS = system: SNB-75 CNS
SK-MEL-5 melanoma = system: SK-MEL-5 melanoma
SK-OV-3 ovarian = system: SK-OV-3 ovarian
NCI-H23 lung = system: NCI-H23 lung
HCT-15 colon = system: HCT-15 colon
K-562 leukemia = system: K-562 leukemia
OVCAR-4 ovarian = system: OVCAR-4 ovarian
CAKI-1 renal = system: CAKI-1 renal
786-0 renal = system: 786-0 renal
MDA-MB-468 breast = system: MDA-MB-468 breast
M14 melanoma = system: M14 melanoma
SK-MEL-28 melanoma = system: SK-MEL-28 melanoma
CCRF-CEM leukemia = system: CCRF-CEM leukemia
OVCAR-3 ovarian = system: OVCAR-3 ovarian
A549 NSCLC = system: A549 NSCLC
NCI-H522 lung = system: NCI-H522 lung
MCF7 breast = system: MCF7 breast
KM12 colon = system: KM12 colon
NCI/ADR-RES ovarian = system: NCI/ADR-RES ovarian
RXF 393 renal = system: RXF 393 renal
HCT-116 colon = system: HCT-116 colon
NCI-H322M lung = system: NCI-H322M lung
SF-539 CNS = system: SF-539 CNS
MDA-MB-435 melanoma = system: MDA-MB-435 melanoma

## CC1=C2C[C@H]3[C@@H](CC[C@@H]4CC(NS(C)(=O)=O)CC[C@@]43C)[C@@H]2CC[C@@]2(C1)O[C@@H]1C[C@H](C)CN[C@H]1[C@H]2C (stereo partly specified)
A498 renal
  GI50: 2.99 µM
  TGI: 7.76 µM
MOLT-4 leukemia
  GI50: 1.83 µM
  TGI: 3.55 µM
SF-268 CNS
  GI50: 3.22 µM
  TGI: 9.73 µM
SN12C renal
  GI50: 3.89 µM
  TGI: 13 µM
PC-3 prostate
  GI50: 3.6 µM
  TGI: 11.5 µM
HCC-2998 colon
  GI50: 3.47 µM
  TGI: 9.91 µM
LOX IMVI melanoma
  GI50: 1.88 µM
  TGI: 3.6 µM
OVCAR-5 ovarian
  GI50: 13.8 µM
  TGI: 26.8 µM
TK-10 renal
  GI50: 2.75 µM
  TGI: 7.38 µM
HT29 colon
  GI50: 1.9 µM
  TGI: 3.55 µM
EKVX NSCLC
  GI50: 3.44 µM
  TGI: 8.77 µM
UO-31 renal
  GI50: 3.9 µM
  TGI: 13.7 µM
OVCAR-8 ovarian
  GI50: 13.4 µM
  TGI: 26.3 µM
IGROV1 ovarian
  GI50: 1.88 µM
  TGI: 3.47 µM
HOP-92 NSCLC
  GI50: 3.4 µM
  TGI: 12.7 µM
NCI-H226 lung
  GI50: 5.5 µM
  TGI: 17.6 µM
SF-295 CNS
  GI50: 13.3 µM
  TGI: 26.1 µM
SNB-19 CNS
  GI50: 5.22 µM
  TGI: 16.4 µM
MDA-MB-231 breast
  GI50: 11.6 µM
  TGI: 23.8 µM
UACC-257 melanoma
  GI50: 2.19 µM
  TGI: 3.64 µM
SW-620 colon
  GI50: 13.8 µM
  TGI: 26.8 µM
BT-549 breast
  GI50: 4.17 µM
  TGI: 12.8 µM
HOP-62 NSCLC
  GI50: 4.47 µM
  TGI: 15.1 µM
MALME-3M melanoma
  GI50: 1.88 µM
  TGI: 3.32 µM
UACC-62 melanoma
  GI50: 10.7 µM
  TGI: 22.6 µM
U251 glioblastoma
  GI50: 4.31 µM
  TGI: 14.2 µM
NCI-H460 NSCLC
  GI50: 1.94 µM
  TGI: 3.61 µM
DU-145 prostate
  GI50: 5.47 µM
  TGI: 16.6 µM
HS 578T breast
  GI50: 10.8 µM
  TGI: 22.7 µM
COLO 205 colon
  GI50: 2.46 µM
  TGI: 5.34 µM
HL-60(TB) leukemia
  GI50: 3.3 µM
  TGI: 12.2 µM
RPMI-8226 leukemia
  GI50: 3.72 µM
  TGI: 11.2 µM
ACHN renal
  GI50: 2.62 µM
  TGI: 6.64 µM
T-47D breast
  GI50: 2.12 µM
  TGI: 4.28 µM
SNB-75 CNS
  GI50: 3.82 µM
  TGI: 15 µM
SK-MEL-5 melanoma
  GI50: 1.72 µM
  TGI: 3.12 µM
SK-OV-3 ovarian
  GI50: 3.8 µM
  TGI: 10.2 µM
NCI-H23 lung
  GI50: 14.9 µM
  TGI: 28.2 µM
HCT-15 colon
  GI50: 3.89 µM
  TGI: 13.6 µM
K-562 leukemia
  GI50: 1.83 µM
  TGI: 3.23 µM
OVCAR-4 ovarian
  GI50: 5.29 µM
  TGI: 14.8 µM
CAKI-1 renal
  GI50: 4.29 µM
  TGI: 15.8 µM
786-0 renal
  GI50: 2.21 µM
  TGI: 5.06 µM
MDA-MB-468 breast
  GI50: 2.08 µM
  TGI: 3.96 µM
M14 melanoma
  GI50: 2.49 µM
  TGI: 5.93 µM
SK-MEL-28 melanoma
  GI50: 3.01 µM
  TGI: 6.71 µM
CCRF-CEM leukemia
  GI50: 1.95 µM
  TGI: 3.74 µM
OVCAR-3 ovarian
  GI50: 3.97 µM
  TGI: 11.5 µM
A549 NSCLC
  GI50: 4 µM
  TGI: 14.2 µM
NCI-H522 lung
  GI50: 3.46 µM
  TGI: 8.3 µM
MCF7 breast
  GI50: 3.24 µM
  TGI: 11.9 µM
KM12 colon
  GI50: 8.44 µM
  TGI: 20.6 µM
NCI/ADR-RES ovarian
  GI50: 13.7 µM
  TGI: 26.7 µM
RXF 393 renal
  GI50: 2.98 µM
  TGI: 9.2 µM
HCT-116 colon
  GI50: 3.83 µM
  TGI: 12.7 µM
NCI-H322M lung
  GI50: 10.9 µM
  TGI: 22.9 µM
SF-539 CNS
  GI50: 5.02 µM
  TGI: 15.9 µM
MDA-MB-435 melanoma
  GI50: 12.4 µM
  TGI: 25 µM
